Measured values reported in PubChem BioAssay AID1259407 (Chemical Carcinogenesis Research Information System (CCRIS), 2018).
The source made the active and inactive calls. No rule for the calls is given here.

Test system: CCRIS mutagenicity, Ames/micronucleus/aberration tests
Test: CCRIS mutagenicity studies

Compound: O=C(O)c1ccc2c(c1)C(=O)OC2=O
- mutagenic call (Test System: AMES SALMONELLA TYPHIMURIUM, Strain/Indicator: TA98, Metabolic Activation: HAMSTER, LIVER, S-9, AROCLOR 1254 (10%), Method: PREINCUBATION): inactive; negative
- mutagenic call (Test System: AMES SALMONELLA TYPHIMURIUM, Strain/Indicator: TA98, Metabolic Activation: NONE, Method: PREINCUBATION): inactive; negative
- mutagenic call (Test System: AMES SALMONELLA TYPHIMURIUM, Strain/Indicator: TA98, Metabolic Activation: RAT LIVER S-9, PHENOBARBITAL AND BETA-NAPHTHOFLAVONE, Method: PREINCUBATION): inactive; negative
- mutagenic call (Test System: AMES SALMONELLA TYPHIMURIUM, Strain/Indicator: TA98, Metabolic Activation: RAT, LIVER, S-9, AROCLOR 1254 (10%), Method: PREINCUBATION): inactive; negative
- mutagenic call (Test System: AMES SALMONELLA TYPHIMURIUM, Strain/Indicator: TA100, Metabolic Activation: HAMSTER, LIVER, S-9, AROCLOR 1254 (10%), Method: PREINCUBATION): inactive; negative
- mutagenic call (Test System: AMES SALMONELLA TYPHIMURIUM, Strain/Indicator: TA100, Metabolic Activation: NONE, Method: PREINCUBATION): inactive; negative
- mutagenic call (Test System: AMES SALMONELLA TYPHIMURIUM, Strain/Indicator: TA100, Metabolic Activation: RAT LIVER S-9, PHENOBARBITAL AND BETA-NAPHTHOFLAVONE, Method: PREINCUBATION): inactive; negative
- mutagenic call (Test System: AMES SALMONELLA TYPHIMURIUM, Strain/Indicator: TA100, Metabolic Activation: RAT, LIVER, S-9, AROCLOR 1254 (10%), Method: PREINCUBATION): inactive; negative
- mutagenic call (Test System: AMES SALMONELLA TYPHIMURIUM, Strain/Indicator: TA102, Metabolic Activation: NONE, Method: PREINCUBATION): inactive; negative
- mutagenic call (Test System: AMES SALMONELLA TYPHIMURIUM, Strain/Indicator: TA102, Metabolic Activation: RAT LIVER S-9, PHENOBARBITAL AND BETA-NAPHTHOFLAVONE, Method: PREINCUBATION): inactive; negative
- mutagenic call (Test System: AMES SALMONELLA TYPHIMURIUM, Strain/Indicator: TA104, Metabolic Activation: NONE, Method: PREINCUBATION): inactive; negative
- mutagenic call (Test System: AMES SALMONELLA TYPHIMURIUM, Strain/Indicator: TA104, Metabolic Activation: RAT LIVER S-9, PHENOBARBITAL AND BETA-NAPHTHOFLAVONE, Method: PREINCUBATION): inactive; negative
- mutagenic call (Test System: AMES SALMONELLA TYPHIMURIUM, Strain/Indicator: TA1535, Metabolic Activation: HAMSTER, LIVER, S-9, AROCLOR 1254 (10%), Method: PREINCUBATION): inactive; negative
- mutagenic call (Test System: AMES SALMONELLA TYPHIMURIUM, Strain/Indicator: TA1535, Metabolic Activation: NONE, Method: PREINCUBATION): inactive; negative
- mutagenic call (Test System: AMES SALMONELLA TYPHIMURIUM, Strain/Indicator: TA1535, Metabolic Activation: RAT LIVER S-9, PHENOBARBITAL AND BETA-NAPHTHOFLAVONE, Method: PREINCUBATION): inactive; negative
- mutagenic call (Test System: AMES SALMONELLA TYPHIMURIUM, Strain/Indicator: TA1535, Metabolic Activation: RAT, LIVER, S-9, AROCLOR 1254 (10%), Method: PREINCUBATION): inactive; negative
- mutagenic call (Test System: AMES SALMONELLA TYPHIMURIUM, Strain/Indicator: TA1537, Metabolic Activation: HAMSTER, LIVER, S-9, AROCLOR 1254 (10%), Method: PREINCUBATION): inactive; negative
- mutagenic call (Test System: AMES SALMONELLA TYPHIMURIUM, Strain/Indicator: TA1537, Metabolic Activation: NONE, Method: PREINCUBATION): inactive; negative
- mutagenic call (Test System: AMES SALMONELLA TYPHIMURIUM, Strain/Indicator: TA1537, Metabolic Activation: RAT LIVER S-9, PHENOBARBITAL AND BETA-NAPHTHOFLAVONE, Method: PREINCUBATION): inactive; negative
- mutagenic call (Test System: AMES SALMONELLA TYPHIMURIUM, Strain/Indicator: TA1537, Metabolic Activation: RAT, LIVER, S-9, AROCLOR 1254 (10%), Method: PREINCUBATION): inactive; negative
- mutagenic call (Test System: E.COLI, Strain/Indicator: WP2UVRA/PKM101, Metabolic Activation: NONE, Method: PREINCUBATION): inactive; negative
- mutagenic call (Test System: E.COLI, Strain/Indicator: WP2UVRA/PKM101, Metabolic Activation: RAT LIVER S-9, PHENOBARBITAL AND BETA-NAPHTHOFLAVONE, Method: PREINCUBATION): inactive; negative
- mutagenic call (Test System: E.COLI, Strain/Indicator: WP2UVRA, Metabolic Activation: NONE, Method: PREINCUBATION): inactive; negative
- mutagenic call (Test System: E.COLI, Strain/Indicator: WP2UVRA, Metabolic Activation: RAT LIVER S-9, PHENOBARBITAL AND BETA-NAPHTHOFLAVONE, Method: PREINCUBATION): inactive; negative

Compound: O=C1c2ccccc2C(=O)c2c1cc(O)c(O)c2O
- mutagenic call (Test System: AMES SALMONELLA TYPHIMURIUM, Strain/Indicator: TA98, Metabolic Activation: NONE, Method: STANDARD PLATE): active; positive
- mutagenic call (Test System: AMES SALMONELLA TYPHIMURIUM, Strain/Indicator: TA98, Metabolic Activation: RAT, LIVER, S-9, AROCLOR 1254, Method: STANDARD PLATE): active; positive
- mutagenic call (Test System: AMES SALMONELLA TYPHIMURIUM, Strain/Indicator: TA1535, Metabolic Activation: NONE, Method: STANDARD PLATE): inactive; negative
- mutagenic call (Test System: AMES SALMONELLA TYPHIMURIUM, Strain/Indicator: TA1535, Metabolic Activation: RAT, LIVER, S-9, AROCLOR 1254, Method: STANDARD PLATE): inactive; negative
- mutagenic call (Test System: AMES SALMONELLA TYPHIMURIUM, Strain/Indicator: TA1537, Metabolic Activation: NONE, Method: STANDARD PLATE): active; positive
- mutagenic call (Test System: AMES SALMONELLA TYPHIMURIUM, Strain/Indicator: TA1537, Metabolic Activation: RAT, LIVER, S-9, AROCLOR 1254, Method: STANDARD PLATE): active; positive
- mutagenic call (Test System: AMES SALMONELLA TYPHIMURIUM, Strain/Indicator: TA1538, Metabolic Activation: NONE, Method: STANDARD PLATE): active; positive
- mutagenic call (Test System: AMES SALMONELLA TYPHIMURIUM, Strain/Indicator: TA1538, Metabolic Activation: RAT, LIVER, S-9, AROCLOR 1254, Method: STANDARD PLATE): active; positive
- mutagenic call (Test System: AMES SALMONELLA TYPHIMURIUM, Strain/Indicator: TA1978, Metabolic Activation: NONE, Method: STANDARD PLATE): inactive; negative
- mutagenic call (Test System: AMES SALMONELLA TYPHIMURIUM, Strain/Indicator: TA1978, Metabolic Activation: RAT, LIVER, S-9, AROCLOR 1254, Method: STANDARD PLATE): inactive; negative

Compound: c1ccc2c(c1)cc1ccc3c4ccccc4cc4ccc2c1c43
- mutagenic call (Test System: HUMAN H1A1V2 CELLS, Strain/Indicator: TK LOCUS, Metabolic Activation: NONE, Method: SUSPENSION/PLATE): active; positive

Compound: Cc1ccc2ccc3cc4ccccc4c4ccc1c2c34
- mutagenic call (Test System: AMES SALMONELLA TYPHIMURIUM, Strain/Indicator: TA100, Metabolic Activation: RAT, INTACT HEPATOCYTES, AROCLOR 1254, Method: PREINCUBATION): active; positive
- mutagenic call (Test System: AMES SALMONELLA TYPHIMURIUM, Strain/Indicator: TA100, Metabolic Activation: RAT, NADPH-FORTIFIED HOMOGENIZED HEPATOCYTES, AROCLOR 1254, Method: PREINCUBATION): active; positive
